The source of these data is patent US20250213547A1, “METHODS OF TREATING NEUROLOGICAL DISEASES” (priority 2022, published 2025).

For this data set, the target named is T1, CH24H (Homo sapiens, UniProt Q9Y6A2).
T1 construct: from tissue; host or cells: brain of living human trial subjects (in vivo)
The data set can be described thus: PK/PD (PK/OE/24HC) turnover modeling. The note with it: for BL / IC50 / IGAM / Imax / KOUT: ELEKTRA subjects; for BL: 24HC baseline. The text has this: Similar to the PK model, the PK/PD model was developed as a population mixed-effects model and incorporated the individual PK parameters from the final PK population model. A turnover model was used to characterize changes in plasma 24HC overtime. Plasma 24HC was considered to be at steady-state baseline (BL) before the start of treatment. […] PK/PD covariates were screened in a procedure similar to the PK covariates. In the final PK/PD model, two covariates, A1-AGLP and body weight affected baseline 24HC.
The PK/PD analysis dataset consisted of 2165 24HC observations from 3 phase I trials. Four subjects from the ELEKTRA study with large IC50 estimates were excluded from the dataset. Additionally, 42 individuals with large conditional weighted residuals were excluded from the dataset. The final dataset contained 2107 24HC observations from 248 subjects. Table 26 summarizes the modeling dataset with reference to example numbers, respective clinical trial ID, subject numbers, regimen, and number of observations and doses. Tables 27 and 28 summarize the categorical covariates used in PK/OE/24HC analysis from the entire dataset and the ELEKTRA study subset, respectively.
Tables 29 and 30 summarize the mean continuous variables used in the PK/OE/24HC covariate analysis from the entire PK/OE/24HC population studied and the ELEKTRA subset, respectively. In addition to the shared variables, the PK/PD dataset contained the individual final estimates of the population PK model parameters (IND_ALAG1, IND_KA, IND_CL, IND_V2, IND_Q, IND_V3, and IND_F1). Subjects without individual PK parameter estimates (e.g. subjects from the placebo arms) were assigned to the respective geometric mean of the estimated individual parameter values.
A turnover model was used to describe changes in 24HC concentration over time. […] The following formula estimates change in 24HC: […]
The indirect exposure effect (EFF) was estimated by an Imax model:
The effect-site concentration was implemented as a delayed equilibrium with the plasma/brain transit rate parameter (KPLBR):
The scaling parameter KPLBR was previously estimated in a competitive enzyme occupancy model derived from PET brain imaging data (NCT02497235, Table 19). Parameters derived from this base model were fixed at their previous final PK population estimates derived from example 12. However, no random effects could be estimated without enzyme occupancy data. FIG. 26 depicts the basic model structure in relation to observed and unobserved data. There was a strong growth-related increase in baseline 24HC levels, which was only observed in young subjects.
The following variables were screened by forward inclusion, backward exclusion F-tests: • Growth/maturity: Weight, BMI, and age • Protein binding: Albumin (ALB), A1-AGLP • Liver function: AST, ALT, GGT, and ALP • Kidney function: Creatinine clearance (CRCL), eGFR • Categorical variables: Asian, sex. Ethnicity, and disease type

Molecules are shown by their SMILES. In brackets after ≈: the same amount, converted by molar mass.

T1 sequence (Q9Y6A2 whole entry): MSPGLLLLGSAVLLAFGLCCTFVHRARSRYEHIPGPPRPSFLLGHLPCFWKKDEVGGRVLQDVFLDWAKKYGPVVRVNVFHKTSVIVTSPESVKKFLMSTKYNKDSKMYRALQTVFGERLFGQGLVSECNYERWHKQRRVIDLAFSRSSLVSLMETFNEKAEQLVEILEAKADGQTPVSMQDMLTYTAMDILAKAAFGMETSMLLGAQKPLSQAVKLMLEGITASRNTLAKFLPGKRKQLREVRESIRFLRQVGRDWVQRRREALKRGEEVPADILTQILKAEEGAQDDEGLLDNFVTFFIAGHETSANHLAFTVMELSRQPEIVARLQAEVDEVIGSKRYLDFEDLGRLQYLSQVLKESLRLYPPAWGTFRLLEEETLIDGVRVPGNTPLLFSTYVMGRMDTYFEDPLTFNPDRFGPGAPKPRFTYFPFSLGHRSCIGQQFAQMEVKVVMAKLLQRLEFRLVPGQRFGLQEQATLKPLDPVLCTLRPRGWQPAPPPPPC

Turning to `O=C(c1cccnc1-c1ccncc1)N1CCC(O)(Cc2ccccc2)CC1` [soticlestat], the KOUT typical value (24HC elimination rate) was 0.0215 h⁻¹. Where the note is “Mean”, this compound showed a BL of 96.4 ng/mL, an IC50 of 0.0128 µg/mL (≈ 0.0343 µM), an IGAM of 0.83 and an Imax of 93.5%. For the setting “Mean”, this compound had a KOUT of 0.022 h⁻¹. Where the note is “Median”, the BL was 84.775 ng/mL, the IC50 is 0.01006 µg/mL (≈ 0.0269 µM), the IGAM turned out to be 0.83 and the Imax was found to be 93.5%. The compound also showed a KOUT (Median) of 0.022 h⁻¹. Under “Range”, the BL fell in the range of 31.63 to 303.45 ng/mL, the IC50 lay within 0.00217 to 0.076 µg/mL, the IGAM is 0.83-0.83 and the Imax is recorded as 93.5-93.5%. Further, the KOUT (Range) is recorded as 0.022-0.022 1/h. Moreover, the “maximum inhibition of 24HC synthesis (Imax), typical value” (PK/PD turnover model) is recorded as 93%. The “IC50 for 24HC, typical value” (PK/PD turnover model, soticlestat concentration) was 0.0101 µg/mL. Moreover, the “24HC Baseline (BL): age cut-off” value (covariate on BL) is listed as 21.2 y. Further, the “24HC Baseline (BL) typical value” (final PK/OE/24HC model) is on record as 50.5 ng/mL. Besides, the “Enzyme Occupancy: KPLBR plasma-brain rate” value (final PK/OE/24HC model, fixed) turned out to be 0.254 h⁻¹. Also, the “plasma/brain scaling parameter KPLBR (fixed)” value (from PET enzyme occupancy model) is 0.254 h⁻¹. Besides, the Imax typical value (maximum inhibition of 24HC) is listed as 93.5%.

A word on the IC50: it is the concentration that gives 50% inhibition. Read a high IC50 as weaker potency in that assay.
